# Calls of active or inactive are those of the source. The calls are words filed in the database; no cut-off is given here.
# System: Mus musculus
# Test: Induction of CYP24 mRNA transcriptional activity in C57BL/6 mouse duodenum at 3 ug/kg, ip after 4 hrs
# Type: functional, organism-based
# Conditions: not given
row,Structure (SMILES),Activity
1,C=C1/C(=C\C=C2/CCC[C@]3(C)[C@@H]([C@H](C)CCCC(C)(C)O)CC[C@@H]23)C[C@@H](O)C[C@@H]1O [CALCITRIOL],Active

# System: not listed separately
# Test: Lipophilicity, log D of the compound
# Type: physicochemical
# Conditions: octanol/water
row,Structure (SMILES),logD
1,C=C1/C(=C\C=C2/CCC[C@]3(C)[C@@H]([C@H](C)COCc4ccco4)CC[C@@H]23)C[C@@H](O)C[C@@H]1O,3.3
2,C=C1/C(=C\C=C2/CCC[C@]3(C)[C@@H]([C@H](C)COC/C=C/C(C)(C)C)CC[C@@H]23)C[C@@H](O)C[C@@H]1O,4.9
3,C=C1/C(=C\C=C2/CCC[C@]3(C)[C@@H]([C@H](C)COCC#CC(C)(C)C)CC[C@@H]23)C[C@@H](O)C[C@@H]1O,4.6
4,C=C(COC[C@@H](C)[C@H]1CC[C@H]2/C(=C/C=C3/C[C@@H](O)C[C@H](O)C3=C)CCC[C@]12C)C1=CCCCC1(C)C,4.9
5,C=C1/C(=C\C=C2/CCC[C@]3(C)[C@@H]([C@H](C)CCCC(C)(C)O)CC[C@@H]23)C[C@@H](O)C[C@@H]1O [CALCITRIOL],3.6
6,C=C(COC[C@@H](C)[C@H]1CC[C@H]2/C(=C/C=C3/C[C@@H](O)C[C@H](O)C3=C)CCC[C@]12C)c1ccccc1,5.1
7,C=C1/C(=C\C=C2/CCC[C@]3(C)[C@@H]([C@H](C)COCc4ccccc4)CC[C@@H]23)C[C@@H](O)C[C@@H]1O,4.4
8,C=C1/C(=C\C=C2/CCC[C@]3(C)[C@@H]([C@H](C)COCC(=C)C4(C)CCCCC4)CC[C@@H]23)C[C@@H](O)C[C@@H]1O,5.3
9,C=C1/C(=C\C=C2/CCC[C@]3(C)[C@@H]([C@H](C)COCC(=C)C(C)(C)C)CC[C@@H]23)C[C@@H](O)C[C@@H]1O,4.7

# System: Mus musculus
# Test: Induction of CYP24 mRNA transcriptional activity in C57BL/6 mouse duodenum at 25 ug/kg, ip after 4 hrs
# Type: functional, organism-based
# Conditions: not given
row,Structure (SMILES),Activity
1,C=C(COC[C@@H](C)[C@H]1CC[C@H]2/C(=C/C=C3/C[C@@H](O)C[C@H](O)C3=C)CCC[C@]12C)C1=CCCCC1(C)C,Active
2,C=C1/C(=C\C=C2/CCC[C@]3(C)[C@@H]([C@H](C)COCC(=C)C(C)(C)C)CC[C@@H]23)C[C@@H](O)C[C@@H]1O,Active

# System: Mus musculus
# Test: Induction of TRPV6 mRNA transcriptional activity in C57BL/6 mouse duodenum at 3 ug/kg, ip after 4 hrs
# Type: functional, organism-based
# Conditions: not given
row,Structure (SMILES),Activity
1,C=C1/C(=C\C=C2/CCC[C@]3(C)[C@@H]([C@H](C)CCCC(C)(C)O)CC[C@@H]23)C[C@@H](O)C[C@@H]1O [CALCITRIOL],Active

# System: Mus musculus
# Test: Induction of TRPV6 mRNA transcriptional activity in C57BL/6 mouse duodenum at 25 ug/kg, ip after 4 hrs
# Type: functional, organism-based
# Conditions: not given
row,Structure (SMILES),Activity
1,C=C(COC[C@@H](C)[C@H]1CC[C@H]2/C(=C/C=C3/C[C@@H](O)C[C@H](O)C3=C)CCC[C@]12C)C1=CCCCC1(C)C,Active
2,C=C1/C(=C\C=C2/CCC[C@]3(C)[C@@H]([C@H](C)COCC(=C)C(C)(C)C)CC[C@@H]23)C[C@@H](O)C[C@@H]1O,Active

# — ChEMBL document CHEMBL1137609, “Low-calcemic, highly antiproliferative, 23-oxa ether analogs of the natural hormone 1 alpha,25-dihydroxyvitamin D3: design, synthesis, and preliminary biological evaluation” (J Med Chem, 2007)
